Assay results reported in patent US7781410B2 (priority 2006, dated 2010).

System: Sebocytes
Assay: cells
Format: cell-based, human
Settings: for inhibition at 3 µM: Homo sapiens, read-out: % Reduction in Lipid Synthesis in Sebocytes [3 uM]; for % Reduction in Lipid Synthesis in Sebocytes [3 uM]: compound at 3 uM; for % Cholera Toxin Reduction: Green Tea Extract 0.0 μg/mL

SMILES | % Reduction in Lipid Synthesis in Sebocytes [3 uM] | further results
COc1ccc(C(=O)/C=C/c2ccc(OC)c(OC)c2)c(O)c1 | – | inhibition at 3 µM: 12.4%
O=C(/C=C/c1ccc(O)c(O)c1)c1ccc(O)cc1O | – | inhibition at 3 µM: 12.8%
COc1cc(O)c(C(=O)/C=C/c2ccc(OC)c(OC)c2)c(O)c1 | – | inhibition at 3 µM: 20.5%
O=C(/C=C/c1ccc(O)c(O)c1)c1c(O)cc(O)cc1O | Not Active | –
COc1cc(O)c(C(=O)/C=C/c2ccc(OC)c(O)c2)c(OC)c1 | – | inhibition at 3 µM: 25.6%
COc1cc(OC)c(C(=O)/C=C/c2ccc(OC)c(OC)c2)c(OC)c1 | Not Active | –
O=C1c2ccc(O)cc2OC1Cc1ccc(O)c(O)c1 (centres unmarked) | – | inhibition at 3 µM: 26.9%
COc1cc(OC)c(C(=O)/C=C/c2ccc(O)cc2)c(OC)c1 | Not Active | –
COc1ccc(/C=C/C(=O)c2c(O)cc(OC)cc2OC)cc1 | – | inhibition at 3 µM: 28.4%
COc1ccc(C(=O)/C=C/c2cc(OC)c(OC)c(OC)c2)c(O)c1 | Not Active | –
COc1ccc(O)c(C(=O)/C=C/c2cccc(OC)c2OC)c1 | – | inhibition at 3 µM: 28.7%
COc1cc(OC)c(C(=O)/C=C/c2ccc(O)cc2OC)c(OC)c1 | Not Active | –
COc1cc(OC)c(C(=O)/C=C/c2ccc(OC)c(O)c2)c(OC)c1 | Not Active | –
COc1cc(/C=C/C(=O)c2ccc(O)cc2C)cc(OC)c1OC | Not Active | –
COc1cccc(/C=C/C(=O)c2ccc(O)cc2O)c1OC | Not Active | –
COc1ccc(/C=C/C(=O)c2ccc(O)cc2O)cc1OC | Not Active | –
COc1cc(/C=C/C(=O)c2ccc(O)cc2O)ccc1O | Not Active | –
COc1ccc(/C=C/C(=O)c2c(O)cc(OC)c(OC)c2OC)c(OC)c1 | Not Active | –
COc1cc(O)c(C(=O)/C=C/c2ccc(O)c(OC)c2)c(OC)c1 | Not Active | –
COc1ccc(C(=O)/C=C/c2cccc(OC)c2OC)c(O)c1 | Not Active | –
O=C(/C=C/c1ccc(O)c(O)c1)c1ccc(OC2O[C@H](CO)C(O)[C@H](O)C2O)c(O)c1O (some centres unmarked) | Not Active | –
COc1ccc(C(=O)/C=C/c2ccc(OC)cc2OC)c(O)c1 | Not Active | –
COc1c(/C=C/C(=O)c2ccc(O)cc2)ccc(O)c1O | Not Active | –
COc1ccc(/C=C/C(=O)c2cc(OC)ccc2O)c(OC)c1 | Not Active | –
COc1ccc(O)c(C(=O)/C=C/c2ccc(OC)c(OC)c2)c1 | Not Active | –
O=C(/C=C/c1ccccc1O)c1ccccc1O [2,2′-dihydroxy-chalcone] | – | % Cholera Toxin Reduction (2,2′-dihydroxychalcone 0.3 μM): 14.3%; % Cholera Toxin Reduction (2,2′-dihydroxychalcone 1.0 μM): 38.2%; % Cholera Toxin Reduction (2,2′-dihydroxychalcone 3.0 μM): 50.8%
O=C(/C=C/c1ccccc1O)c1ccccc1O [drawing 18] | – | inhibition at 3 µM: 47.3%
